We go through two molecules from patent US20230023285A1, “PHARMACEUTICAL COMPOSITION FOR USE IN PREVENTING OR STOPPING METASTASES” (LOGICK ENERGETICS B.V., priority 2019, published 2023).

One assay deals with EpCAM. Put plainly: EpCAM gene expression by qPCR in MTΔECad cells. Particulars: qPCR normalized to GAPDH. It is filed as cell-based, mouse. The protocol:
(§1) For the stimulation of MTΔECad cells the following concentrations were used: PPS (5 μg/ml), Indomethacin (50 μM), en Pioglitazone (10 μM).
(§2) Untreated cell lines were employed as negative controls. As read-outs of adipogenesis, several approaches were tested: • 1. Oil red O staining by histochemistry. • 2. Nile Red staining by immuno-fluorescence (IF) • 3. RTqPCR (gene expression analysis) • Adiponectin (adipocyte marker) • EpCam (marker for epithelial cells) FIGS. 15a-d show stimulation schemes; FIGS. 15a-b according to prior art, and FIGS. 15c-15d according to the present invention.
(§3) Inventors studied the effect of treatment of MTΔECad cells with the different compounds and combinations on EpCAM expression as a marker for epithelial cells and Adiponectin expression as a marker for adipocytes.
(§4) Steps performed when measuring gene expression using real-time PCR.
(§5) RNA was first isolated and characterized for quantity and integrity. During a two-step reaction, cDNA was first synthesized and then used as a PCR template. The housekeeping gene GAPDH was used for normalizing the results. A normalization factor has been used for calculating each individual sample. Dividing the fluorescent data by its normalization factor produced the normalized data, which was followed by statistical analysis.

The test system of a further assay is Adiponectin. Put plainly: Adiponectin gene expression by qPCR in MTΔECad cells. The note with it: qPCR normalized to GAPDH. It is filed as cell-based, mouse. The protocol: as §1, §2, §3, §4, §5
A general note: Real-time PCR tracks product formation cycle by cycle.

`COc1ccc2c(c1)c(CC(=O)O)c(C)n2C(=O)c1ccc(Cl)cc1` [Indomethacin]: in the assay on EpCAM, the EpCAM gene expression result is reported as “clearly stimulated EpCAM expression”. The adiponectin gene expression result in the assay with Adiponectin is recorded as “obviously stimulated adiponectin gene expression”.
The matching figures for Pentosan polysulphate [PPS]: “no significant effect” and “no effect”.
